Results on 11 compounds are retold here after patent US11377441B2, “Covalent inhibitors of KRAS” (Araxes Pharma LLC, priority 2017, dated 2022).

The assay addresses T1, KRAS G12C 1-169, his-tagged protein, GDP-loaded (Homo sapiens, UniProt P01116, G12C).
T1 construct: KRAS G12C 1-169, his-tagged protein, GDP-loaded
In words: Biochemical assay: covalent modification of KRAS G12C measured by mass spectrometry (RapidFire/TOF or Q-Exactive). It counts as binding. The following applies: covalent binding to (modification of) KRAS G12C after a ten minute incubation period. An outline of the steps: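 GDP-loaded KRAS G12C 1-169 (his-tagged) at 2 μM or 0.5 μM in 20 mM Hepes, 150 mM NaCl, 1 mM MgCl2, incubated with compound at 100, 30 or 10 μM at room temperature for 10 min, 30 min, 2 h or 24 h, then quenched with formic acid. Intact-protein LC-MS, deconvolved; percent modification from modified versus unmodified protein.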

Take `C=CC(=O)N1C[C@H](C)N(c2nc(NC(=O)CN(C)C)nc3c(F)c(-c4c(C)ccc5cnn(C)c45)c(Cl)cc23)C[C@H]1C` [Compound 260, N-(4-((2S,5R)-4-acryloyl-2,5-dimethylpiperazin-1-yl)-6-chloro-7-(1,6-dimethyl-1H-indazol-7-yl)-8-fluoroquinazolin-2-yl)-2-(dimethylamino)aceta-mide]: the Binding % entry is reported as “+++ (+++ indicates binding activity greater than 80%)”.
Take `C=CC(=O)N1C[C@H](C)N(c2nc(N3CC(N(C)C)C3)nc3c(F)c(-c4cccc5c4N(C)C(=O)C5)c(Cl)cc23)C[C@H]1C` [Compound 262, 7-(4-((2S,5R)-4-acryloyl-2,5-dimethylpiperazin-1-yl)-6-chloro-2-(3-(dimethylamino)azetidin-1-yl)-8-fluoroquinazolin-7-yl)-1-methylindolin-2-one]: the Binding % result was “+ (+ indicates binding activity greater than 0% and up to 50%)”.
On to `C=CC(=O)N1C[C@H](C)N(c2nc(N3CC(N(C)C)C3)nc3c(F)c(-c4c(C)ccc5c4NC(=O)C5)c(Cl)cc23)C[C@H]1C` [Compound 263, 7-(4-((2S,5R)-4-acryloyl-2,5-dimethylpiperazin-1-yl)-6-chloro-2-(3-(dimethylamino)azetidin-1-yl)-8-fluoroquinazolin-7-yl)-6-methylindolin-2-one], for which the Binding % entry is “+ (+ indicates binding activity greater than 0% and up to 50%)”.
As for `C=CC(=O)N1C[C@H](C)N(c2nc(OC3CC(N(C)C)C3)nc3c(F)c(-c4c(C)ccc5[nH]ncc45)c(Cl)cc23)C[C@H]1C` (stereo partly drawn) [Compound 264, 1-((2R,5S)-4-(6-chloro-2-(3-(dimethylamino)cyclo-butoxy)-8-fluoro-7-(5-methyl-1H-indazol-4-yl)quinazolin-4-yl)-2,5-dimethylpiperazin-1-yl)prop-2-en-1-one], the entry is “+++ (+++ indicates binding activity greater than 80%)”.
Regarding `C=CC(=O)N1C[C@H](C)N(c2nc(N3CC(N(C)C)C3)nc3c(F)c(N4CCCc5ccccc54)c(Cl)cc23)C[C@H]1C` [Compound 265, 1-((2R,5S)-4-(6-chloro-7-(3,4-dihydroquinolin-1(2H)-yl)-2-(3-(dimethylamino)azetidin-1-yl)-8-fluoroquinazolin-4-yl)-2,5-dimethylpiperazin-1-yl)prop-2-en-1-one], the Binding % entry is recorded as “++ (++ indicates binding activity from 50 to 80%)”.
In the case of `C=CC(=O)N1CCN(c2nc(N3CC(N(C)C)C3)nc3c(F)c(-c4c(C)ccc5cn[nH]c45)c(Cl)cc23)CC1CC#N` (centres unmarked) [Compound 266, 2-(1-acryloyl-4-(6-chloro-2-(3-(dimethylamino)azetidin-1-yl)-8-fluoro-7-(6-methyl-1H-indazol-7-yl)quinazolin-4-yl)piperazin-2-yl)acetonitrile], the Binding % entry is listed as “++ (++ indicates binding activity from 50 to 80%)”.
Regarding `C=CC(=O)N1CCN(c2nc(N3CC(N(C)C)C3)nc3c(F)c(-c4c(C)ccc5[nH]ncc45)c(Cl)cc23)CC1CC#N` (centres unmarked) [Compound 267, 2-(1-acryloyl-4-(6-chloro-2-(3-(dimethyalmino)azetidin-1-yl)-8-fluoro-7-(5-methyl-1H-indazol-4-yl)quinazolin-4-yl)piperazin-2-yl)acetonitrile], the Binding % result is on record as “+++ (+++ indicates binding activity greater than 80%)”.
Turning to `C=CC(=O)N1CCN(c2nc(OC[C@@H]3CCCN3C)nc3c(F)c(-c4c(C)ccc5cn[nH]c45)c(Cl)cc23)CC1CC#N` (stereo partly drawn) [Compound 268, 2-(1-acryloyl-4-(6-chloro-8-fluoro-7-(6-methyl-1H-indazol-7-yl)-2-(((S)-1-methylpyrrolidin-2-yl)methoxy)quinazolin-4-yl)piperazin-2-yl)acetonitrile], the Binding % entry is listed as “+++ (+++ indicates binding activity greater than 80%)”.
Take `C=CC(=O)N1CCN(c2nc(N3CC(N(C)C)C3)nc3c(F)c(-c4c(C)ccc5cnn(C)c45)c(Cl)cc23)CC1CC#N` (centres unmarked) [Compound 269, 2-(1-acryloyl-4-(6-chloro-7-(1,6-dimethyl-1H-indazol-7-yl)-2-(3-(dimethylamino)azetidin-1-yl)-8-fluoroquinazolin-4-yl)piperazin-2-yl)acetonitrile]: the Binding % result was “+++ (+++ indicates binding activity greater than 80%)”.
Turning to `C=CC(=O)N1CCN(c2nc(N3CC(N(C)C)C3)nc3c(F)c(-c4c(C)ccc5[nH]nc(C)c45)c(Cl)cc23)CC1CC#N` (centres unmarked) [Compound 270, 2-(1-acryloyl-4-(6-chloro-7-(3,5-dimethyl-1H-indazol-4-yl)-2-(3-(dimethylamino)azetidin-1-yl)-8-fluoroquinazolin-4-yl)piperazin-2-yl)acetonitrile], the Binding % entry was “+++ (+++ indicates binding activity greater than 80%)”.
Take `C=CC(=O)N1CCN(c2nc(OC[C@@H]3CCCN3C)nc3c(F)c(-c4c(C)ccc5[nH]ncc45)c(Cl)cc23)CC1CC#N` (stereo partly drawn) [Compound 271, 2-(1-acryloyl-4-(6-chloro-8-fluoro-7-(5-methyl-1H-indazol-4-yl)-2-(((S)-1-methylpyrrolidin-2-yl)methoxy)quinazolin-4-yl)piperazin-2-yl)acetonitrile]: the Binding % result is reported as “+++ (+++ indicates binding activity greater than 80%)”.
